We go through 57 molecules from the Kinase Knowledgebase extract (Sharma et al. 2016).

The target in the assay is MAPK14 (human) (UniProt Q16539). The assay is described as follows: Enzyme Assay.
MAPK14 (human), sequence (Q16539 whole entry, looked up): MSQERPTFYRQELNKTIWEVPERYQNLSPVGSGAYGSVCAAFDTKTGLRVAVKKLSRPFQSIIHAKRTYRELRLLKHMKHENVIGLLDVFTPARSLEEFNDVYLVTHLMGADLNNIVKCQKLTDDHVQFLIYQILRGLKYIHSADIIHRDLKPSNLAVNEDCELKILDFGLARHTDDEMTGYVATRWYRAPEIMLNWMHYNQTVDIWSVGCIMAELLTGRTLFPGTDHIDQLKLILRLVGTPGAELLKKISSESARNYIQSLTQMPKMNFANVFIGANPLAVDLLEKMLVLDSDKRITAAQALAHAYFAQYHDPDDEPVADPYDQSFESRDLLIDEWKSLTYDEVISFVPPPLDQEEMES
The molecule `Cc1ccc(-n2nc(C(C)(C)C)cc2NC(=O)N[C@H]2CC[C@H](Oc3ccc4nnc(N5CCCCC5)n4c3)c3ccccc32)cc1` returned a half-inhibitory concentration (IC50) of less than 10 nM.

`CN(C)CCOc1cccc(-n2nc(C(C)(C)C)cc2NC(=O)N[C@H]2CC[C@@H](Oc3ccc4nnc(N5CC6CCC(C6)C5)n4c3)c3ccccc32)c1` yielded an IC50 of less than 10 nM.

Turning to `Cc1ccc(-n2nc(C(C)(C)C)cc2NC(=O)N[C@H]2CC[C@@H](Oc3ccc4nnc(-c5cccc(CN6CCOCC6)c5)n4c3)c3ccccc32)cc1`, the IC50 was less than 10 nM.

Turning to `Cc1ccc(-n2nc(C(C)(C)C)cc2NC(=O)N[C@H]2CC[C@@H](Oc3ccc4nnc(CCN5CCCC5)n4c3)c3ccccc32)cc1`, the IC50 was less than 10 nM.

`Cc1ccc(-n2nc(C(C)(C)C)cc2NC(=O)N[C@H]2CC[C@@H](Oc3ccc4nnc([C@@H]5C[C@@H](F)CN5C)n4c3)c3ccccc32)cc1` showed an IC50 of less than 10 nM.

Take `Cc1ccc(-n2nc(C(C)(C)C)cc2NC(=O)N[C@H]2CC[C@@H](Oc3ccc4nnc(C(C)(C)N(C)C)n4c3)c3ccccc32)cc1`: the IC50 was less than 10 nM.

The molecule `Cc1ccc(-n2nc(C(C)(C)C)cc2NC(=O)N[C@H]2CC[C@@H](Oc3ccc4nnc([C@H]5COCCN5C)n4c3)c3ccccc32)cc1` had an IC50 of less than 10 nM.

For `CCN(C)Cc1ccc(-n2nc(C(C)(C)C)cc2NC(=O)N[C@H]2CC[C@@H](Oc3ccc4nnc(N5CCCC[C@@H]5C)n4c3)c3ccccc32)cc1`, the IC50 is less than 10 nM.

The molecule `Cc1ccc(-n2nc(C(C)(C)C)cc2NC(=O)N[C@H]2CC[C@@H](Oc3ccc4nnc(C5CN(C)CCN5C)n4c3)c3ccccc32)cc1` (some centres not stated) registered an IC50 of less than 10 nM.

Regarding `CN1CCC[C@H]1c1nnc2ccc(O[C@H]3C[C@H](NC(=O)Nc4cc(C(C)(C)C)nn4-c4ccc(CO)cc4)c4ccccc43)cn12`, the IC50 was less than 10 nM.

In turn, `COC1CCN(CCOc2cccc(-n3nc(C(C)(C)C)cc3NC(=O)N[C@H]3CC[C@@H](Oc4ccc5nnc(N6CCCC[C@@H]6C)n5c4)c4ccccc43)c2)CC1` gave a 50% inhibitory concentration (IC50) of less than 10 nM.

With `Cc1ccc(-n2nc(C(C)(C)C)cc2NC(=O)N[C@H]2CC[C@@H](Oc3ccc4nnc(N5CCC[C@@H](O)C5)n4c3)c3ccccc32)cc1`, the IC50 is less than 10 nM.

`C[C@H]1CCCCN1c1nnc2ccc(O[C@@H]3CC[C@H](NC(=O)Nc4cc(C(C)(C)C)nn4-c4ccc(CN5CCOCC5)cc4)c4ccccc43)cn12` yielded an IC50 of less than 10 nM.

For `C[C@H]1CCCCN1c1nnc2ccc(O[C@@H]3CC[C@H](NC(=O)Nc4cc(C(C)(C)C)nn4-c4cccc(CCN5CCOCC5)c4)c4ccccc43)cn12`, the IC50 is less than 10 nM.

For the molecule `CCN1CCC[C@H]1c1nnc2ccc(O[C@@H]3CC[C@H](NC(=O)Nc4cc(C(C)(C)C)nn4-c4ccc(C)cc4)c4ccccc43)cn12`, the IC50 is less than 10 nM.

For the molecule `C[C@H]1CCCCN1c1nnc2ccc(O[C@@H]3CC[C@H](NC(=O)Nc4cc(C(C)(C)C)nn4-c4cccc(OCCN5CCN(C)CC5)c4)c4ccccc43)cn12`, the IC50 was less than 10 nM.

`CC(C)(C)c1cc(NC(=O)N[C@H]2CC[C@@H](Oc3ccc4nnc(N5CCCCC5)n4c3)c3ccccc32)n(-c2cccc(SCCO)c2)n1` returned an IC50 of less than 10 nM.

In the case of `Cc1ccc(-n2nc(C(C)(C)C)cc2NC(=O)N[C@H]2CC[C@@H](Oc3ccc4nnc([C@H]5CCCN(C)C5)n4c3)c3ccccc32)cc1`, the IC50 was less than 10 nM.

In the case of `Cc1ccc(-n2nc(C(C)(C)C)cc2NC(=O)N[C@H]2CC[C@@H](Oc3ccc4nnc(N5CC[C@@H](CO)C5)n4c3)c3ccccc32)cc1`, the IC50 was less than 10 nM.

In the case of `CN1CCCC[C@H]1c1nnc2ccc(O[C@@H]3CC[C@H](NC(=O)Nc4cc(C(C)(C)C)nn4-c4ccc(CO)cc4)c4ccccc43)cn12`, the IC50 was less than 10 nM.

Regarding `Cc1ccc(-n2nc(C(C)(C)C)cc2NC(=O)N[C@H]2CC[C@@H](Oc3ccc4nnc(N5CCC[C@H](O)C5)n4c3)c3ccccc32)cc1`, the IC50 was less than 10 nM.

`C[C@@H]1CCC[C@H](C)N1c1nnc2ccc(O[C@@H]3CC[C@H](NC(=O)Nc4cc(C(C)(C)C)nn4-c4cccc(CN5CCN(C)CC5)c4)c4ccccc43)cn12` returned an IC50 of less than 10 nM.

In turn, `CC(C)N(c1nnc2ccc(O[C@@H]3CC[C@H](NC(=O)Nc4cc(C(C)(C)C)nn4-c4cccc(OCCN(C)C)c4)c4ccccc43)cn12)C(C)C` registered an IC50 of less than 10 nM.

Take `CC(C)(C)c1cc(NC(=O)N[C@H]2CC[C@@H](Oc3ccc4nnc(N5CCCCC5)n4c3)c3ccccc32)n(-c2cccc(COCCO)c2)n1`: the IC50 is less than 10 nM.

`Cc1ccc(-n2nc(C(C)(C)C)cc2NC(=O)N[C@H]2CC[C@@H](Oc3ccc4nnc(N(C)CCO)n4c3)c3ccccc32)cc1` yielded an IC50 of less than 10 nM.

`Cc1ccc(-n2nc(C(C)(C)C)cc2NC(=O)N[C@H]2CC[C@@H](Oc3ccc4nnc([C@]5(CO)CCCN5C)n4c3)c3ccccc32)cc1` gave an IC50 of less than 10 nM.

`CN1CCC[C@H]1c1nnc2ccc(O[C@@H]3CC[C@H](NC(=O)Nc4cc(C(C)(C)C)nn4-c4ccc(O)cc4)c4ccccc43)cn12` had a half-inhibitory concentration (IC50) of less than 10 nM.

`Cc1ccc(-n2nc(C(C)(C)C)cc2NC(=O)N[C@H]2CC[C@@H](Oc3cc(C)c4nnc([C@@H]5CCCN5C)n4c3)c3ccccc32)cc1` displayed an IC50 of less than 10 nM.

`C[C@H]1CCCCN1c1nnc2ccc(O[C@@H]3CC[C@H](NC(=O)Nc4cc(C(C)(C)C)nn4-c4cccc(OCCN5CCCC5)c4)c4ccccc43)cn12`: the IC50 was less than 10 nM.

`C[C@H]1CCCCN1c1nnc2ccc(O[C@@H]3CC[C@H](NC(=O)Nc4cc(C(C)(C)C)nn4-c4ccc(CN5CCCC5)cc4)c4ccccc43)cn12`: the IC50 is less than 10 nM.

In turn, `CCN(CC)CCOc1cccc(-n2nc(C(C)(C)C)cc2NC(=O)N[C@H]2CC[C@@H](Oc3ccc4nnc(N5CCCC[C@@H]5C)n4c3)c3ccccc32)c1` registered a half-inhibitory concentration (IC50) of less than 10 nM.

`CC(C)(C)c1cc(NC(=O)N[C@H]2CC[C@@H](Oc3ccc4nnc(N5CCCCC5)n4c3)c3ccccc32)n(-c2cccc(OCCO)c2)n1` had an IC50 of less than 10 nM.

`Cc1ccc(-n2nc(C(C)(C)C)cc2NC(=O)N[C@H]2CC[C@@H](Oc3ccc4nnc(CN5CCN(C)C(CO)C5)n4c3)c3ccccc32)cc1` (some centres not stated) gave an IC50 of less than 10 nM.

For `Cc1ccc(-n2nc(C(C)(C)C)cc2NC(=O)N[C@H]2CC[C@@H](Oc3ccc4nnc([C@H]5CCCN5C)n4c3)c3ccccc32)cc1`, the IC50 is less than 10 nM.

Consider `CC(C)(C)c1cc(NC(=O)N[C@H]2CC[C@@H](Oc3ccc4nnc(N5CCCCC5)n4c3)c3ccccc32)n(-c2ccc(CO)cc2)n1`, for which the IC50 is less than 10 nM.

For `Cn1cc(-n2nc(C(C)(C)C)cc2NC(=O)N[C@H]2CC[C@@H](Oc3ccc4nnc(N5CCCCC5)n4c3)c3ccccc32)cn1`, the IC50 is less than 10 nM.

`C[C@@H]1CCC[C@H](C)N1c1nnc2ccc(O[C@@H]3CC[C@H](NC(=O)Nc4cc(C(C)(C)C)nn4CCN4CCOCC4)c4ccccc43)cn12` returned an IC50 of less than 10 nM.

For the molecule `Cc1ccc(-n2nc(C(C)(C)C)cc2NC(=O)N[C@H]2CC[C@@H](Oc3ccc4nnc(N5CCC(CCO)CC5)n4c3)c3ccccc32)cc1`, the IC50 is less than 10 nM.

In turn, `C[C@H]1COCCN1c1nnc2ccc(O[C@@H]3CC[C@H](NC(=O)Nc4cc(C(C)(C)C)nn4CCO)c4ccccc43)cn12` had an IC50 of less than 10 nM.

With `Cc1ccc(-n2nc(C(C)(C)C)cc2NC(=O)N[C@H]2CC[C@@H](OCCN3CCOCC3)c3ccccc32)cc1`, the IC50 lay within 100 to 500 nM.

As to `C[C@H]1CCCCN1c1nnc2ccc(O[C@@H]3CC[C@H](NC(=O)Nc4cc(C(C)(C)C)nn4-c4cccc(OCCN5CCC(F)CC5)c4)c4ccccc43)cn12`, the IC50 is less than 10 nM.

With `Cc1ccc(-n2nc(C(C)(C)C)cc2NC(=O)N[C@H]2CC[C@@H](Oc3ccc4nnc(N5CCC[C@H]5CO)n4c3)c3ccccc32)cc1`, the IC50 was less than 10 nM.

The molecule `Cc1ccc(-n2nc(C(C)(C)C)cc2NC(=O)N[C@H]2CC[C@@H](Oc3ccc4nnc(N5CCCCC5)n4c3)c3ccccc32)cc1` gave a half-inhibitory concentration (IC50) of less than 10 nM.

The molecule `C[C@@H]1CCC[C@H](C)N1c1nnc2ccc(O[C@@H]3CC[C@H](NC(=O)Nc4cc(C(C)(C)C)nn4-c4cccc(CN5CCCC5)c4)c4ccccc43)cn12` returned an IC50 of less than 10 nM.

The molecule `C[C@H]1CCCCN1c1nnc2ccc(O[C@@H]3CC[C@H](NC(=O)Nc4cc(C(C)(C)C)nn4-c4cccc(OCCN(C)C)c4)c4ccccc43)cn12` returned an IC50 of less than 10 nM.

As to `CN1CCN(Cc2cccc(-n3nc(C(C)(C)C)cc3NC(=O)N[C@H]3CC[C@@H](Oc4ccc5nnc(N6CCCCC6)n5c4)c4ccccc43)c2)CC1`, the IC50 was less than 10 nM.

Regarding `Cc1ccc(-n2nc(C(C)(C)C)cc2NC(=O)N[C@H]2CC[C@@H](Oc3ccc4nnc(C5CCNCC5)n4c3)c3ccccc32)cc1`, the IC50 was less than 10 nM.

`Cc1ccc(-n2nc(C(C)(C)C)cc2NC(=O)N[C@H]2CC[C@@H](Oc3ccc4nnc(N(C)CCN5CCOCC5)n4c3)c3ccccc32)cc1` displayed an IC50 of less than 10 nM.

`COCCN(C)Cc1ccc(-n2nc(C(C)(C)C)cc2NC(=O)N[C@H]2CC[C@@H](Oc3ccc4nnc(N5CCCC[C@@H]5C)n4c3)c3ccccc32)cc1` came in with an IC50 of less than 10 nM.

With `CCOC(=O)c1cccc(-n2nc(C(C)(C)C)cc2NC(=O)N[C@H]2CC[C@@H](Oc3ccc4nnc([C@@H]5CCCN5C)n4c3)c3ccccc32)c1`, the IC50 was less than 10 nM.

Consider `CN1CCC[C@H]1c1nnc2ccc(O[C@@H]3CC[C@H](NC(=O)Nc4cc(C(C)(C)C)nn4-c4cccc(CO)c4)c4ccccc43)cn12`, for which the IC50 was less than 10 nM.

In the case of `Cc1ccc(-n2nc(C(C)(C)C)cc2NC(=O)N[C@H]2CC[C@@H](Oc3ccc4nnc(N5CC[C@H](O)C5)n4c3)c3ccccc32)cc1`, the half-maximal inhibitory concentration (IC50) is less than 10 nM.

The molecule `C[C@@H]1CCC[C@H](C)N1c1nnc2ccc(O[C@@H]3CC[C@H](NC(=O)Nc4cc(C(C)(C)C)nn4-c4cccc(OCCN(C)C)c4)c4ccccc43)cn12` yielded an IC50 of less than 10 nM.

`Cc1ccc(-n2nc(C(C)(C)C)cc2NC(=O)N[C@H]2CC[C@@H](Oc3ccc4nnc([C@@H](C)N5CCOCC5)n4c3)c3ccccc32)cc1.Cc1ccc(-n2nc(C(C)(C)C)cc2NC(=O)N[C@H]2CC[C@@H](Oc3ccc4nnc([C@H](C)N5CCOCC5)n4c3)c3ccccc32)cc1` displayed an IC50 of less than 10 nM.

Consider `CC(C)(C)c1cc(NC(=O)N[C@H]2CC[C@@H](Oc3ccc4nnc(N5CCCCC5)n4c3)c3ccccc32)n(-c2cnn(CCCN3CCOCC3)c2)n1`, for which the half-maximal inhibitory concentration (IC50) is less than 10 nM.

In turn, `Cc1ccc(-n2nc(C(C)(C)C)cc2NC(=O)N[C@H]2CC[C@@H](Oc3ccc4nnc([C@@H]5CCCCN5C)n4c3)c3ccccc32)cc1` showed an IC50 of less than 10 nM.

Regarding `C[C@H]1CCCCN1c1nnc2ccc(O[C@@H]3CC[C@H](NC(=O)Nc4cc(C(C)(C)C)nn4-c4ccc(CN5CCC(F)CC5)cc4)c4ccccc43)cn12`, the IC50 was less than 10 nM.
